Patent US11718645B2, “Macrocyclic therapeutic agents, methods of manufacture, and methods of treatment” (University of Florida Research Foundation, Incorporated, priority 2014, dated 2023)

What was measured:
[1] = Microsomal stability; format: in vitro ADME, mouse
Method: HPLC-MS was done on a 3200 QTRAP (Applied Biosystems) equipped with a Shimadzu (Kyoto, Japan) UFLC System. Mouse serum and harmine were purchased from Sigma-Aldrich. Pooled CD1 mouse liver (female) microsomes were purchased from XenoTech, LCC (Lenexa, Kans.) with protein concentrations of 0.5 mg/ml. HCT116 cell lysates were prepared with PhosphoSafe lysis buffer (Novagen). Protein concentration was determined by using the BCA Assay. Analysis was carried out similarly as previously described [Liu, Y.; Salvador, L. A.; Byeon, S.; Ying, Y.; Kwan, J. C.; Law, B. K.; Hong, J.; Luesch. H. J. Pharmacol. Exp. Ther. 2010, 335, 351-361].
The stability of apratoxin A, S4 (BK), S7 (BL), S8 (BM) and S9 (BN) in the presence of mouse microsomes was determined by using an adaptation of a published procedure [Ackley, D. C.; Rockich, K. T.; Baker, T. R. Optimization in Drug Discovery: In Vitro Methods (Series: Methods in Pharmacology and Toxicology) (eds Yan Z, Caldwell J W) 2004, pp 151-162, Springer, New Jersey]. In brief, microsomes were added to prewarmed phosphate buffer (100 mM, pH 7.4) at 37° C. Apratoxin A, BK, BL, BM, or BN (3 μL) were added to the microsomal preparation followed by NADPH cofactor solution (1.3 mM NADP, 3.3 mM glucose 6-phosphate, 0.4 U/mL glucose-6-phosphate dehydrogenase, 3.3 mM MgCl2). The reaction was allowed to proceed for 3 min to 3 h (7 time points) at 37° C. (thermomixer, 1050 rpm). The reaction was quenched by addition of ethyl acetate and subsequently spiked with harmine. The zero time point was defined by denaturing the microsomes with ethyl acetate before the addition of apratoxins. Incubation of apratoxins with microsomes alone was also performed following the same procedure to determine NADPH-dependent metabolism. The final concentration of the incubation mixture contained 0.5 mg/ml protein concentration and 1 μM apratoxins.
Analysis of apratoxin A, S4 (BK), S7 (BL), S8 (BM) and S9 (BN) was done by using HPLC-MS [column, Onyx Monolithic C18 (3.0×100 mm), Phenomenex (Torrance, Calif.); solvent, water (solvent A) acetonitrile (solvent B); flow rate, 0.5 ml/min; detection by electrospray ionization-MS in positive ion mode (MRM scan)]. A stepwise gradient elution was used starting at 60% B and 40% A, then increasing to 80% B at 5 min and maintained at this condition for 5 min. Parameters were optimized before analysis by using direct syringe infusion. The retention times (tR, min; MRM ion pair) of the analytes and internal standard are as follows: harmine (2.2; 213.1→169.9), apratoxin A (4.7; 841.4→445.2), apratoxin S4 (BK) (4.1; 828.5→432.2), apratoxin S7 (BL) (4.05; 814.5→418.2), apratoxin S8 (BM) (5.2; 842.5→446.2), apratoxin S9 (BN) (4.9; 828.5→432.2). Compound-dependent parameters used were as follows: apratoxin A, declustering potential (DP) 51, entrance potential (EP) 12, collision energy (CE) 45, collision cell exit potential (CXP) 6, collision cell entrance potential (CEP) 32; and harmine, DP 56.0, EP 4.5, CE 44.0, CXP 5, CEP 16.0. Source gas parameters used were as follows: curtain gas, 15.0; collision gas low, ionspray voltage 5500; temperature, 600.0; ion source gas 150.0; ion source gas 2 60.0.
Calibration curves for apratoxin A, S4 (BK), S7 (BL), S8 (BM) and S9 (BN) in the presence of mouse serum, HCT116 cell lysates, and aqueous solutions were generated by least-square linear regression analysis of the analyte peak area and internal standard peak area ratio against the nominal concentration of the standard solutions. A linear regression analysis was performed, and the concentration of remaining apratoxins at each time point was determined through interpolation for plasma, cellular, and aqueous stability experiments. The amount of remaining apratoxins with microsome incubation was determined from the peak area ratio of apratoxins at tx (3 min to 3 h) and t0. All calculations were done by using Analyst 1.4.2 (Applied Biosystems) Quantitate Mode.

[2] = tested on: HCT116 xenograft; experiment: In vivo efficacy, HCT116 xenograft mouse model
Method: 3-5 week old female nude mice (nu/nu) were obtained from Charles River Laboratory (Wilmington, Mass.). 1×10^6 HCT116 cells in a volume of 100 μL of sterile saline were injected subcutaneously on the left rear flank of a nude mouse to establish tumors. Tumor dimensions were measured using calipers every day and tumor volumes were calculated using the formula W^2×L×0.5, where width (W)≤length (L). Tumors with a starting volume bigger than 100 mm^3 were excluded from the analysis. Mice were injected intraperitoneally with the doses of 2 μg/mouse (0.1 mg/kg), 5 μg/mouse (0.25 mg/kg) of apratoxin S8 (BM) or solvent (DMSO) control every day until the tumor size in one dimension reached 15 mm and tumor tissue was harvested on the following day. 50 mg of tumor tissue was sonicated in PhosphoSafe lysis buffer (EMD chemicals, Inc) and used for immunoblot analysis described as the above. All studies were carried out under the protocol approved by the Institutional Animal Care and Use Committee at the University of Florida.

Compound | % remaining ([1]; microsomes + NADPH, 0 min) [%] | % remaining ([1]; microsomes + NADPH, 3 min) [%] | % remaining ([1]; microsomes + NADPH, 5 min) [%] | % remaining ([1]; microsomes + NADPH, 15 min) [%] | % remaining ([1]; microsomes + NADPH, 30 min) [%] | % remaining ([1]; microsomes + NADPH, 60 min) [%] | % remaining ([1]; microsomes + NADPH, 120 min) [%] | % remaining ([1]; microsomes only, 0 min) [%] | % remaining ([1]; microsomes only, 3 min) [%] | % remaining ([1]; microsomes only, 5 min) [%] | % remaining ([1]; microsomes only, 15 min) [%] | % remaining ([1]; microsomes only, 30 min) [%] | % remaining ([1]; microsomes only, 60 min) [%] | % remaining ([1]; microsomes only, 120 min) [%] | dose dependence of tumor growth inhibition ([2]; 0.1 and 0.25 mg/kg daily i.p.) | signs of toxicity (weight loss, abnormal behavior) ([2]; 0.1 and 0.25 mg/kg daily i.p., nude mice) | effect on tumor growth ([2]; higher dose 0.25 mg/kg daily i.p., about 2 weeks) | tumor growth inhibition ([2]; lower dose 0.1 mg/kg daily i.p., about 2 weeks)
CC[C@H](C)[C@H]1C(=O)N2CCC[C@@H]2C(=O)O[C@H](C(C)(C)C)C[C@@H](C)C[C@H](O)CC2=N[C@@H](CCC(=O)N[C@@H](Cc3ccc(OC)cc3)C(=O)N(C)[C@@H](C)C(=O)N1C)CS2 [apratoxin S7 (BL), Apratoxin S7] | 100 | 54.95 ± 4.74 | 18.70 ± 1.41 | 52.40 ± 2.40 | 6.10 ± 1.96 | 5.41 ± 1.09 | 4.30 ± 0.82 | 100 | 66.60 ± 12.30 | 60.50 ± 2.26 | 76.55 ± 9.55 | 54.80 ± 1.56 | 54.50 ± 0.00 | 53.85 ± 9.40 | – | – | – | –
CC[C@H](C)[C@H]1C(=O)N2CCC[C@@H]2C(=O)O[C@H](C(C)(C)C)C[C@@H](C)C[C@H](O)[C@H](C)C2=N[C@H](CCC(=O)N[C@@H](Cc3ccc(OC)cc3)C(=O)N(C)[C@@H](C)C(=O)N1C)CS2 [apratoxin S9 (BN), Apratoxin S9] | 100 | 51.40 ± 8.06 | 17.80 ± 0.28 | 3.55 ± 0.25 | 3.73 ± 0.25 | 6.06 ± 2.40 | 5.63 ± 0.18 | 100 | 83.10 ± 0.42 | 71.40 ± 1.27 | 45.25 ± 5.30 | 56.05 ± 1.06 | 48.45 ± 0.92 | 56.25 ± 0.21 | – | – | – | –
CC[C@H](C)[C@H]1C(=O)N2CCC[C@@H]2C(=O)O[C@H](C(C)(C)C)C[C@@H](C)C[C@H](O)C(C)(C)C2=N[C@@H](CCC(=O)N[C@@H](Cc3ccc(OC)cc3)C(=O)N(C)[C@@H](C)C(=O)N1C)CS2 [apratoxin S8 (BM), Apratoxin S8] | 100 | 37.20 ± 1.27 | 17.30 ± 2.55 | 8.28 ± 2.86 | 4.83 ± 1.05 | 3.55 ± 0.91 | 5.01 ± 0.23 | 100 | 74.10 ± 9.62 | 77.45 ± 3.18 | 63.45 ± 3.61 | 74.75 ± 8.70 | 81.25 ± 1.91 | 70.05 ± 0.78 | clear dose-dependent tumor growth inhibition | did not observe signs of toxicity | strongly retarded the tumor growth | about 50%
